PubChem BioAssay AID1996
In brackets after ≈: the same amount, converted by molar mass.

details: buffer; pH 7.4; 200.0 µM

Compound | solubility kinetic [µg/mL]
COc1ccc(OC)c(NC(=O)C2=C(C)NC(=O)NC2c2cccs2)c1 (stereo not drawn) | 25.3 (≈ 67.7 µM)
O=C(O)c1cccc(N2C(=O)CSC2c2ccccc2)c1 (stereo not drawn) | > 44.9
CN(n1cnc2ccccc2c1=O)S(C)(=O)=O | > 38
CCCCc1nnc(SCC(=O)NC2CCCCC2)n1C | > 46.6
COc1ccccc1N1C(N)=NC(N)=NC12CCCCC2.Cl | > 48.6
Cc1noc(/C=C/c2ccccn2)c1[N+](=O)[O-] | 19.3 (≈ 83.5 µM)
COP(=O)(c1ccc(N(C)C)cc1)C(O)c1ccccc1 (stereo not drawn) | > 45.8
O=c1c(Cc2ccccc2)c(O)c2cccc3c4c(n1c23)CCCC4 | 3.7 (≈ 11.2 µM)
CC(C)NC(=O)COC(=O)c1ccc(Cl)c(S(N)(=O)=O)c1 | > 50.2
Cc1cc(C)c(C#N)c(Nc2cccc(C)c2C)n1 | 1 (≈ 3.98 µM)
CN(C)S(=O)(=O)c1ccc(NC(=O)Cn2ccsc2=N)cc1 | 48 (≈ 141 µM)
O=C(Nc1c(-c2cccs2)nc2ccccn12)c1ccccc1F | 47.1 (≈ 140 µM)
COc1ccc(C(=O)O/N=C(\N)c2ccc(OC)c(OC)c2)cc1 | 9.3 (≈ 28.2 µM)
NC(=O)CSc1nnc(-c2ccco2)n1-c1ccccc1 | > 45.1
O=C(NCCc1ccccc1)c1cccc(N2CCCC2=O)c1 | > 46.3
Cc1ccc(NC(=O)NCc2ccc3[nH]c(C)cc3c2)cc1 | 2.9 (≈ 9.89 µM)
Cc1cc(C)nc(SCCC(=O)Nc2ccccc2Cl)n1 | > 48.3
CS(=O)(=O)Nc1ccccc1N=C(c1ccccc1)c1ccccc1 | 23.2 (≈ 66.2 µM)
CC(=O)c1cccc(NC(=S)NC2CCCCCCC2)c1 | 6 (≈ 19.7 µM)
CC(=O)Oc1ccccc1C(=O)NC(C)CCc1ccccc1 (stereo not drawn) | > 46.7
O=C(Nc1ccc2c(c1)Cc1ccccc1-2)c1ccccc1F | < 0.6
O=C(Nc1cc(Cl)cc(Cl)c1)C1CCCC1 | < 0.6
COc1ccccc1CNC(=O)COC(=O)c1cc(=O)c2ccccc2o1 | > 55.1
COc1ccc(NC(=O)CC2CC3CCC2C3)cn1 (stereo not drawn) | 29.9 (≈ 115 µM)

Compound | solubility kinetic [µg/mL]
O=C(O)c1cc2c(=O)c3ccccc3oc2nc1C(F)(F)F | > 46.4
Cc1ccc(OCC(=O)NCCCNC(=O)c2ccco2)cc1C | > 49.6
CCn1c(C)cc(C(=O)COC(=O)c2ccccc2[N+](=O)[O-])c1C | 15.3 (≈ 46.3 µM)
O=C(c1ccco1)N1CCN(S(=O)(=O)c2cccc([N+](=O)[O-])c2)CC1 | > 54.8
CS(=O)(=O)N1CCC(C(=O)NCc2ccc(F)cc2)CC1 | > 47.2
CCOc1cc(/C=C\[N+](=O)[O-])ccc1OCC(=O)N1CCOCC1 | 24.5 (≈ 72.8 µM)
O=C(COC(=O)c1ccc2ccccc2c1O)NCC(F)(F)F | 2.5 (≈ 7.64 µM)
COc1ccc2nc(COC(=O)c3cccs3)c(C(C)=O)[n+]([O-])c2c1 | 1.6 (≈ 4.46 µM)
Cc1cccc(S(=O)(=O)N2CCn3cccc3C2C)c1 (stereo not drawn) | > 43.6
Fc1ccccc1COc1ccc(C(=S)N2CCCC2)cc1 | 3.5 (≈ 11.1 µM)
C[C@H](NC(=O)c1ccc(C(C)(C)C)cc1)C(=O)N1CCN(C/C=C/c2ccccc2)CC1 | 21.6 (≈ 49.8 µM)
COc1cccc2c3c(c(=O)[nH]c12)CC(C)(C)O3 | > 36.8
CCOC(=O)/C=C1\SCC(=O)N1CC(=O)Nc1cccc(F)c1 | 17.1 (≈ 50.5 µM)
O=C(CN1CCC(NC(=O)C2CC2)CC1)Nc1cccc(F)c1 | > 47.9
O=c1[nH]cnc2sc3c(c12)CCCCC3 | 19.9 (≈ 90.3 µM)
CCOc1ccc(C(=O)NCc2ccc3c(c2)OCO3)cc1 | 11.3 (≈ 37.8 µM)
Cn1ncc(C(=O)Nc2ccc(Cl)cc2)c1C(F)(F)F | > 45.6
Cc1nc(-c2ccc(NC(=O)c3ccc(Br)o3)cc2)cs1 | < 0.4
CC(=O)NC(C)CCc1ccccc1 (stereo not drawn) | > 28.7
Cc1cc(NC(=O)C2=C(O)c3ccccc3S(=O)(=O)N2C)no1 | 33.9 (≈ 101 µM)
COc1ccccc1N1CN(CCc2ccccc2)CNC1=S | 45.4 (≈ 139 µM)
O=c1cc(CN2CCOCC2)c2cc(Cl)c(O)cc2o1 | > 44.4
CCc1ccc(C(=O)NC(CCSC)C(=O)OC)cc1 (stereo not drawn) | > 44.3
CC(C)COc1ccc(C(=S)N2CCCC2)cc1 | 21.2 (≈ 80.5 µM)

Compound | solubility kinetic [µg/mL]
NS(=O)(=O)c1cccc(NC(=O)CN2CCN(S(=O)(=O)c3ccc4c(c3)OCCO4)CC2)c1 | > 74.5
Nc1cc(=O)[nH]c(SCC(=O)Nc2cccc(S(=O)(=O)N3CCCCCC3)c2)n1 | 11.7 (≈ 26.7 µM)
CCOC(=O)c1c(O)c2ccccc2n(C)c1=O | > 37.1
CCN(CC)c1ccc(C(=O)c2cnc(/N=C/N(C)C)s2)cc1 | 48.6 (≈ 147 µM)
CCc1ccccc1NC(=O)CN(C1CCCCC1)S(C)(=O)=O | > 50.8
O=C(NC1CCCCC1)c1cc(-c2cccs2)on1 | 0.9 (≈ 3.26 µM)
Cc1ccc(C(C)C)c(OCCN2CCc3ccccc3C2)c1.Cl | < 0.7
O=S(=O)(Nc1cccc(S(=O)(=O)N2CCCCC2)c1)c1ccccc1F | > 59.8
CSc1ncccc1C(=O)OCC(=O)c1ccccc1 | 1 (≈ 3.48 µM)
Cc1cccc(NC(=O)c2c(O)c3ccccc3n(C)c2=O)c1 | < 0.3
Cl.NC(N)=NC(N)=Nc1cccc(Cl)c1 | > 37.2
COc1ccccc1NCCC(=O)OCC(=O)Nc1ccccc1Cl | > 54.4
CCC/C(O)=C1\C(=O)CC(C)(C)CC1=NCc1ccccc1 | > 44.9
COc1ccccc1/C=C/c1nc(C#N)c(N(C)C)o1 | 0.4 (≈ 1.49 µM)
O=C(CCc1c[nH]c2ccccc12)N1CCCCCCC1 | 17.9 (≈ 62.9 µM)
COc1nc(Nc2cccc(F)c2)nc(OC)n1 | 12.8 (≈ 51.2 µM)
COc1ccc(N2C(=O)CC(c3ccc([N+](=O)[O-])cc3)C2=O)cc1 (stereo not drawn) | 14.9 (≈ 45.7 µM)
COc1ccc(NC2CCCN(C(=O)c3c(C)noc3C)C2)cc1 (stereo not drawn) | > 49.4
COc1ccc(C)cc1NC(=O)COC(=O)c1ccc([N+](=O)[O-])o1 | 3.4 (≈ 10.2 µM)
CCc1ccc(OCC(=O)Oc2ccc([N+](=O)[O-])cc2)cc1 | 29.4 (≈ 97.6 µM)
COCCCn1c(=O)c2ccccc2n(CC(=O)NC2CCCC2)c1=O | > 53.9
Nc1ccc(CCC(=O)N2CCCC2)cc1 | > 32.7
CN(C)c1ccc(/C=N/NC(=O)c2ccn(C)n2)cc1 | > 40.7
O=C(COC(=O)Cc1ccccc1[N+](=O)[O-])NCC1CCCCC1 | 10.8 (≈ 32.3 µM)

Compound | solubility kinetic [µg/mL]
O=C(O)C1CSC(c2ccc(O)c([N+](=O)[O-])c2)N1 (stereo not drawn) | > 40.5
CCCCN(CC)Cc1c(C)[nH]c2c(ccc3ccccc32)c1=O | > 48.4
CCCCN(C)CCNC(=O)C(=O)c1c(C)[nH]c2ccccc12 | > 47.3
O=C(O)C(Cc1c[nH]c2ccccc12)N1C(=O)c2ccccc2C1=O (stereo not drawn) | 41.4 (≈ 124 µM)
Cc1cccc(NC(=O)C2COc3ccccc3O2)n1 (stereo not drawn) | 35.9 (≈ 133 µM)
CCCN1C(=O)c2ccc(C(=O)Nc3cc(C)ccc3O)cc2C1=O | 0.9 (≈ 2.66 µM)
COc1ccc(NC(=O)C2CC3CCC2C3)c(OC)c1 (stereo not drawn) | 31.5 (≈ 114 µM)
CCC(=O)Nc1ccc(NC(=S)NC(=O)/C=C/c2ccco2)cc1 | 3 (≈ 8.74 µM)
O=C(NCCCN1CCCC1=O)c1ccc(Cl)c(Cl)c1 | 45.9 (≈ 146 µM)
CC(NC(=O)CN1CCOCC1)c1ccc(F)cc1 (stereo not drawn) | > 39.9
COc1ccccc1Nc1nc(NCCCN(C)C)nc(N)c1[N+](=O)[O-] | > 54.2
CCOC(=O)CN1C(=O)CCSc2ccc(Cl)cc21 | > 45
C/C(=C\c1ccccc1F)C(=O)c1c(C)cc(C)[nH]c1=O | > 42.8
CCC(NC(=O)C1CCCC1)c1ccccc1 (stereo not drawn) | > 34.7
c1ccc(P(c2ccccc2)c2ccccn2)cc1 | 10 (≈ 38 µM)
CN(C)C(=O)CN1C(=O)NC2(CCCc3ccccc32)C1=O (stereo not drawn) | > 45.2
CS(=O)(=O)N1CCCC(C(=O)c2cccc(Cl)c2)C1 (stereo not drawn) | > 45.3
C=CCn1c(=NC(=O)c2cccs2)sc2cccc(OC)c21 | < 0.4
CCCCn1c(SCC(=O)NC2CC2)nc2ccccc2c1=O | 2.6 (≈ 7.84 µM)
CCn1c(=O)c2sccc2n(CC(=O)NC2CCCC2)c1=O | 45.4 (≈ 141 µM)
CC(OC(=O)c1ccco1)C(=O)Nc1ccc(Cl)cn1 (stereo not drawn) | > 44.2
COc1cc(C(=O)COC(=O)c2c(C)noc2C)cc(OC)c1OC | > 52.4
CC(OC(=O)C1CC1)C(=O)Nc1cccc(S(=O)(=O)N2CCOCC2)c1 (stereo not drawn) | > 57.4
O=C(c1cc([N+](=O)[O-])[nH]n1)N1CCSCC1 | > 36.3

Compound | solubility kinetic [µg/mL]
C[C@@H]1NC(=O)/C(=C\c2ccccc2Cl)NC1=O | 12.8 (≈ 51.1 µM)
N#Cc1ccccc1CSc1ncccc1C(=O)O | > 40.5
Cc1onc(-c2ccccc2)c1C(=O)Nc1cccc(S(=O)(=O)N2CCCCC2)c1 | 2.5 (≈ 5.88 µM)
C=C(C)Cc1c(C)c(C#N)c2[nH]c3ccccc3n2c1=O | 2.9 (≈ 10.5 µM)
Cn1cc(C(=O)CCl)c2ccccc21 | > 31.1
Cc1ccc2c(C(=O)CN3CCCC(C)C3)c(C)[nH]c2c1 (stereo not drawn) | 39.3 (≈ 138 µM)
COc1cc(/C=C/c2nc3ccccc3c(=O)[nH]2)ccc1OC(F)F | 1.9 (≈ 5.52 µM)
Cc1ccc(-c2csc(NC(=O)c3ccc([N+](=O)[O-])o3)n2)cc1 | 1.2 (≈ 3.64 µM)
c1ccc2c(c1)COC(CNC1CCCCC1)OC2 | > 39.2
COc1ccc(C(=O)NCCNc2ccc([N+](=O)[O-])cn2)cc1 | 16.4 (≈ 51.8 µM)
CCOc1ccccc1-n1cnc(C#N)c1N | > 34.2
O=C(Cc1ccc([N+](=O)[O-])cc1)N1CCN(Cc2ccc3c(c2)OCO3)CC1 | 46.4 (≈ 121 µM)
COc1cccc(CNCCc2c[nH]c3ccccc23)c1OC.Cl | > 52
COc1ccc(NC(=O)c2cc(-c3cccs3)on2)cc1 | 0.3 (≈ 0.999 µM)
O=C(Nc1ccc(COc2ccccc2)cc1)Nc1cccc(C(=O)O)c1 | 12.1 (≈ 33.4 µM)
COc1ccccc1N1CCN(Cc2cc3c(cc2O)OCO3)CC1 | > 51.4
COc1ccccc1Nc1ncnc2sccc12 | 30.1 (≈ 117 µM)
NS(=O)(=O)c1cc2c(cc1Cl)NC=NS2(=O)=O | > 44.4
CCCNC(=O)COC(=O)c1ccc(N2CCCC2)c([N+](=O)[O-])c1 | 15.9 (≈ 47.4 µM)
COc1ccc(C2=NOC(CNC(=S)N3CCOCC3)C2)cc1 (stereo not drawn) | 12.8 (≈ 38.2 µM)
S=C1NCN(Cc2cccnc2)CN1c1cccc2ccccc12 | > 50.2
COc1ccc2[nH]c(C(=O)N3CCNCC3)cc2c1OC | 36.2 (≈ 125 µM)
